Experimental data: ChEMBL document CHEMBL4219047, “Optimization of peptide-based polyagonists for treatment of diabetes and obesity” (Bioorg Med Chem, 2018)
pEC50: −log10 of the molar value. Where a SMILES comes first, the peptide text is derived from it. Bridges are numbered along the chain shown (N, C = ends).

Experiments:
Format in all cases: functional, cell-based
[1] = molecular target: T1, Glucagon-like peptide 1 receptor (Homo sapiens, UniProt P43220); experiment: Agonist activity at human GLP1 receptor expressed in HEK293 cells assessed as increase in cAMP level after 5 hrs by CRE driven luciferase reporter gene assay
[2] = molecular target: T2, Glucagon receptor (Homo sapiens, UniProt P47871); experiment: Agonist activity at human GCG receptor expressed in HEK293 cells assessed as increase in cAMP level after 5 hrs by CRE driven luciferase reporter gene assay
[3] = molecular target: T3, Gastric inhibitory polypeptide receptor (Homo sapiens, UniProt P48546); experiment: Agonist activity at human GIP receptor expressed in HEK293 cells assessed as increase in cAMP level after 5 hrs by CRE driven luciferase reporter gene assay
T3 sequence (P48546 whole entry): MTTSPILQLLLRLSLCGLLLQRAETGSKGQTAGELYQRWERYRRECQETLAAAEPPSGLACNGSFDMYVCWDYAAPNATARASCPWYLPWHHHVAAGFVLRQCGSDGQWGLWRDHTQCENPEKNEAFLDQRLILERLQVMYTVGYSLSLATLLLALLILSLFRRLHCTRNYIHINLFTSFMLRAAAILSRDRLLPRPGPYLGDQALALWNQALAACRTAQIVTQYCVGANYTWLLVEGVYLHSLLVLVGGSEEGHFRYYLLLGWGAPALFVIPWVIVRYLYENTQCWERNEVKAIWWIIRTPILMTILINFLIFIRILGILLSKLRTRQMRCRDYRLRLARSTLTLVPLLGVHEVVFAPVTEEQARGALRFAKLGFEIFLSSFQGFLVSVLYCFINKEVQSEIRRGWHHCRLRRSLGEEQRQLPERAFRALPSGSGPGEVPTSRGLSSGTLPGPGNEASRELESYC

[4] = molecular target: T1, Glucagon-like peptide 1 receptor; experiment: Agonist activity at human GLP1 receptor expressed in HEK293 cells assessed as increase in cAMP level after 5 hrs by CRE driven luciferase reporter gene assay relative to GLP1; parameters: concentration or dose not given beside the values
[5] = molecular target: T2, Glucagon receptor; experiment: Agonist activity at human GCG receptor expressed in HEK293 cells assessed as increase in cAMP level after 5 hrs by CRE driven luciferase reporter gene assay relative to glucagon
[6] = molecular target: T4, Gastric inhibitory polypeptide receptor (Homo sapiens) (UniProt P48546); experiment: Agonist activity at human GIP receptor expressed in HEK293 cells assessed as increase in cAMP level after 5 hrs by CRE driven luciferase reporter gene assay relative to GIP; parameters: concentration or dose not given beside the values
T4 sequence (whole entry): T3 sequence (P48546 whole entry)

T2 sequence (P47871 whole entry): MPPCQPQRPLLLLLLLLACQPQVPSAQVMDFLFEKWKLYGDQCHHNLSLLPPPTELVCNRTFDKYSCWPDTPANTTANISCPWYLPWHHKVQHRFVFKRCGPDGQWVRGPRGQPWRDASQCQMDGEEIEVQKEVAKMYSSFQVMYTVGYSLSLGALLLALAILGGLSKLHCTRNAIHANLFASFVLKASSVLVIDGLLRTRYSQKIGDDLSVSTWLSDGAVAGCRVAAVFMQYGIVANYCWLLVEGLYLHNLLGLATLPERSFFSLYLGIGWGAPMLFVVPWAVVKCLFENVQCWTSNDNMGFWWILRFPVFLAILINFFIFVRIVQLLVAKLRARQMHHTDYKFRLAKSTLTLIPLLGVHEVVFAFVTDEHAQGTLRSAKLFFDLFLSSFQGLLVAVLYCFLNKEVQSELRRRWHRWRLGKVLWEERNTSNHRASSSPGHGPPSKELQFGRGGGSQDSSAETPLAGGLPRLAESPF
T1 sequence (P43220 whole entry): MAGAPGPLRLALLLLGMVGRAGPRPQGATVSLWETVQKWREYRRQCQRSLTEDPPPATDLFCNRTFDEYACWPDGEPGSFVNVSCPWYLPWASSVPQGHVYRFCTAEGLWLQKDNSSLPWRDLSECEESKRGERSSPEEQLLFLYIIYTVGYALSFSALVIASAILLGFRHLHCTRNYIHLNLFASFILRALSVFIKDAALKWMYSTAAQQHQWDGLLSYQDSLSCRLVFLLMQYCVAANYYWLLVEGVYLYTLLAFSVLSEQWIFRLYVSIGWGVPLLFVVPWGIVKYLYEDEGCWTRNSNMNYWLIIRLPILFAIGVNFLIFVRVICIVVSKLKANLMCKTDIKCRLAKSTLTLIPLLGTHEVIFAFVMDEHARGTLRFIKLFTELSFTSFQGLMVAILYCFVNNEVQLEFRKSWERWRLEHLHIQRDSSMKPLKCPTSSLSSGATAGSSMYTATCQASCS

Row | pEC50 [1] | pEC50 [2] | pEC50 [3] | Activity [4] [%] | Activity [5] [%] | Activity [6] [%] | Structure (SMILES)
1 | 10.03 | 11.30 | 8.96 | 30 | 640 | 2 | CCCCCCCCCCCCCCCC(=O)N[C@@H](CCC(=O)NCCCC[C@H](NC(=O)[C@H](CC(=O)O)NC(=O)[C@H](CO)NC(=O)[C@@H](NC(=O)[C@H](Cc1ccccc1)NC(=O)[C@@H](NC(=O)CNC(=O)[C@H](CCC(N)=O)NC(=O)CNC(=O)[C@@H](N)Cc1cnc[nH]1)[C@@H](C)O)[C@@H](C)O)C(=O)N[C@@H](CO)C(=O)N[C@@H](CCCCN)C(=O)N[C@@H](Cc1ccc(O)cc1)C(=O)N[C@@H](CC(C)C)C(=O)N[C@@H](CC(=O)O)C(=O)N[C@@H](CCC(=O)O)C(=O)N[C@@H](CCCNC(=N)N)C(=O)N[C@@H](C)C(=O)N[C@@H](C)C(=O)N[C@@H](CCC(N)=O)C(=O)N[C@@H](CC(=O)O)C(=O)N[C@@H](Cc1ccccc1)C(=O)N[C@H](C(=O)N[C@@H](CCC(N)=O)C(=O)N[C@@H](Cc1c[nH]c2ccccc12)C(=O)N[C@@H](CC(C)C)C(=O)N[C@@H](CC(C)C)C(=O)N[C@@H](CC(=O)O)C(=O)N[C@H](C(N)=O)[C@@H](C)O)C(C)C)C(=O)O
2 | 10.66 | 10.51 | 8.20 | 127 | 103 | 0 | CC[C@H](C)[C@H](NC(=O)[C@H](Cc1ccccc1)NC(=O)[C@H](CCC(=O)O)NC(=O)[C@H](CCCCN)NC(=O)[C@H](C)NC(=O)[C@H](C)NC(=O)[C@H](CCC(N)=O)NC(=O)[C@H](CCC(=O)O)NC(=O)[C@H](CC(=O)O)NC(=O)[C@H](CC(C)C)NC(=O)[C@H](Cc1ccc(O)cc1)NC(=O)[C@H](CCCCN)NC(=O)[C@H](CO)NC(=O)[C@H](Cc1ccc(O)cc1)NC(=O)[C@H](CC(=O)O)NC(=O)[C@H](CO)NC(=O)[C@@H](NC(=O)[C@H](Cc1ccccc1)NC(=O)[C@@H](NC(=O)CNC(=O)[C@H](CCC(N)=O)NC(=O)[C@H](CO)NC(=O)[C@@H](N)Cc1cnc[nH]1)[C@@H](C)O)[C@@H](C)O)C(=O)N[C@@H](C)C(=O)N[C@@H](Cc1c[nH]c2ccccc12)C(=O)N[C@@H](CC(C)C)C(=O)N[C@@H](CCSC)C(=O)N[C@@H](CC(N)=O)C(=O)N[C@H](C(N)=O)[C@@H](C)O (H-HSQGTFTSDYSKYLDEQAAKEFIAWLMNT-NH2)
3 | 10.70 | 10.52 | 8.20 | 126 | 104 | 0 | CC[C@H](C)[C@H](NC(=O)[C@H](Cc1ccccc1)NC(=O)[C@H](CCC(=O)O)NC(=O)[C@@H]1CCCCNC(=O)CC[C@H](NC(=O)[C@H](CC(=O)O)NC(=O)[C@H](CC(C)C)NC(=O)[C@H](Cc2ccc(O)cc2)NC(=O)[C@H](CCCCN)NC(=O)[C@H](CO)NC(=O)[C@H](Cc2ccc(O)cc2)NC(=O)[C@H](CC(=O)O)NC(=O)[C@H](CO)NC(=O)[C@@H](NC(=O)[C@H](Cc2ccccc2)NC(=O)[C@@H](NC(=O)CNC(=O)[C@H](CCC(N)=O)NC(=O)[C@H](CO)NC(=O)[C@@H](N)Cc2cnc[nH]2)[C@@H](C)O)[C@@H](C)O)C(=O)N[C@@H](CCC(N)=O)C(=O)N[C@@H](C)C(=O)N[C@@H](C)C(=O)N1)C(=O)N[C@@H](C)C(=O)N[C@@H](Cc1c[nH]c2ccccc12)C(=O)N[C@@H](CC(C)C)C(=O)N[C@@H](CCSC)C(=O)N[C@@H](CC(N)=O)C(=O)N[C@H](C(N)=O)[C@@H](C)O (H-HSQGTFTSDYSKYLDEQAAKEFIAWLMNT-NH2; lactam 16-20)
